Laboratory results taken from US7579018B2, “Microbiological control in aqueous systems” (Albemarle Corporation, priority 2000, dated 2009).

Experiments:
[1] = Iodometric titration of clear saturated stock solutions; type: physicochemical; conditions: 1 gram powder slurried in 100 mL deionized water, stirred 20 minutes, filtered
Method: Stock solutions of DBDMH and of BCDMH were prepared by slurrying 1 gram of the respective powders in 100 mL of deionized water. After stirring for 20 minutes, the insolubles were filtered to yield clear saturated stock solutions of DBDMH and BCDMH, respectively. Iodometric titration of the stock solutions using the potassium iodide-sodium thiosulfate method indicated the DBDMH solution contained 580 mg/L (as total chlorine), and the BCDMH solution contained 1100 mg/L (as total chlorine).

heterotrophic bacteria = experiment: Cooling tower field trial, Example 2: heterotrophic bacteria plate counts; conditions: slug dose 3 times/week, 0.5 ppm free Cl2; cooling tower water
Source text: (§1) The effectiveness of DBDMH and of BCDMH in microbiological control in cooling tower water was investigated in comparative tests. The cooling tower consisted of two 500-ton units in a crossflow design. The total system-contained volume was 14,000 gallons, and the tower contained medium efficiency film fill. Water from the tower cooled the coils of two 300-ton air conditioners (chillers). The tower typically operated at a pH of about 9.1 and 4 cycles of concentration. Blowdown was controlled by conductivity. Make-up water consisted of softened city water and which was of good quality. The make-up water was very low in calcium (<10 mg/L) but high in pH (8.7). The alkalinity was 145 mg/L (as CaCO3), and the silica level was 28 mg/L. The tower employed a conventional polyphosphate/molybdate/phosphonate program to provide corrosion and deposit control.
The BCDMH (20 lbs) was introduced to the water using 20-gram, 1-inch tablets charged to a solid halogen feeder (Neptune model BT-40, Neptune Chemical Pump Co., Inc., Lansdale, Pa.). Before each dose, the cooling tower water was sampled and enumerated for heterotrophic bacteria plate counts. Then the tower was slug dosed three times a week with BCDMH. Slug dosing was accomplished by diverting through the feeder containing the tablets a sidestream of the recirculating water for about 1 to 5 hours until a “free chlorine” dose of about 0.5 mg/L (as “free chlorine”) was obtained. The “total chlorine” dose was measured at the same time. After each dose the cooling water was sampled and enumerated for heterotrophic bacteria plate counts. As necessary, the feeder was replenished with more BCDMH tablets.
For example, before the biocide dose the bacteria levels in the bulk water ranged from 10^5 to 10^4 CFUs/mL. After the biocide dose the bacteria levels in the bulk water were reduced to 10^4 to 10^3.
After emptying the feeder of BCDMH tablets, 20 lbs of DBDMH granules was charged into the feeder. Thereupon the same procedure as described above for the BCDMH was carried out except for the fact that is was unnecessary to add any additional DBDMH to the feeder during the 30-day test period. In fact, the total weight of DBDMH consumed during the test was only 7 lbs.

aerobic bacteria = experiment: Cooling tower field trial of 51 days, Example 3: bacteria levels
Source text: as §1, with “Using the same cooling tower as used in Example 2, the effectiveness” for “The effectiveness”, “of 1,3-dibromo-5,5-dimethylhydantoin” for “of DBDMH and of BCDMH”, “was investigated. As noted above, the” for “was investigated in comparative tests. The”
The 1,3-dibromo-5,5-dimethylhydantoin was introduced to the water using granules charged to a solid halogen feeder (Neptune model BT-40, Neptune Chemical Pump Co., Inc., Lansdale, Pa.). The field trial lasted 51 days. The tower was slug dosed three times a week with 1,3-dibromo-5,5-dimethylhydantoin. Slug dosing was accomplished by diverting a sidestream of the recirculating water through the feeder containing the granules for about 1 to 5 hours until a total halogen residual of about 0.75 mg/L (as Cl2) was obtained. This biocide program reduced bacterial levels in the bulk water by an average of 2 orders of magnitude, with bacteria levels in the bulk water after the biocide dose ranging from 10^1 to 10^3 CFUs/mL.
The results from the average of several analyses conducted during the course of this field trial using DBDMH were as follows: In the microbiological tests, the levels of aerobic bacteria were in the range of 6×10^0 to 3×10^3 CFUs/mL in the cooling tower water and 10^0 in the make-up water. […]

halogen content of saturated stock solution (as total chlorine) [1]: 580 mg/L
Structure (SMILES): CC1(C)C(=O)N(Br)C(=O)N1Br [DBDMH, 1,3-dibromo-5,5-dimethylhydantoin]
Bacteria reduction (heterotrophic bacteria): 1.5-2 logs
levels of aerobic bacteria (aerobic bacteria; in the cooling tower water, several analyses during field trial): 6×10^0 to 3×10^3 CFUs/mL
bacteria levels in the bulk water after the biocide dose (aerobic bacteria; slug dosed three times a week to total halogen residual about 0.75 mg/L (as Cl2)): 10^1 to 10^3 CFUs/mL
average reduction of bacterial levels in the bulk water (aerobic bacteria; slug dosed three times a week to total halogen residual about 0.75 mg/L (as Cl2), 51 days): 2 orders of magnitude
